Data reported in patent US10479784B2, “Substituted pyrazin-2-amines as inhibitors of ATR kinase” (Vertex Pharmaceuticals Incorporated, priority 2008, dated 2019).
Like-named read-outs stand apart in the source and are kept apart here.

Experiments:
[1] = tested on: HCT116 colorectal cancer cells; assay: HCT116 cell viability (MTS), compound alone; type: cell-based; conditions: Homo sapiens, HCT-116, 96 h, read-out: HTC116 (MTS) IC50
Procedure: (§1) Compounds were screened for their ability to sensitize HCT116 colorectal cancer cells to Cisplatin using a 96 h cell viability (MTS) assay. […] Compounds and Cisplatin were then both added simultaneously to the cell media in 2-fold serial dilutions from a top final concentration of 10 μM as a full matrix of concentrations in a final cell volume of 200 μl, and the cells were then incubated at 37° C. in 5% CO2. After 96 h, 40 μl of MTS reagent (Promega G358a) was added to each well and the cells were incubated for 1 h at 37° C. in 5% CO2.

[2] = target: intracellular ATR (Homo sapiens (Human), UniProt Q13535); assay: Cellular ATR Inhibition Assay (H2AX phosphorylation in hydroxyurea treated HT29 cells); type: cell-based; conditions: 2 mM hydroxyurea, phosphorylated H2AX-positive nuclei
intracellular ATR, sequence (Q13535 whole entry): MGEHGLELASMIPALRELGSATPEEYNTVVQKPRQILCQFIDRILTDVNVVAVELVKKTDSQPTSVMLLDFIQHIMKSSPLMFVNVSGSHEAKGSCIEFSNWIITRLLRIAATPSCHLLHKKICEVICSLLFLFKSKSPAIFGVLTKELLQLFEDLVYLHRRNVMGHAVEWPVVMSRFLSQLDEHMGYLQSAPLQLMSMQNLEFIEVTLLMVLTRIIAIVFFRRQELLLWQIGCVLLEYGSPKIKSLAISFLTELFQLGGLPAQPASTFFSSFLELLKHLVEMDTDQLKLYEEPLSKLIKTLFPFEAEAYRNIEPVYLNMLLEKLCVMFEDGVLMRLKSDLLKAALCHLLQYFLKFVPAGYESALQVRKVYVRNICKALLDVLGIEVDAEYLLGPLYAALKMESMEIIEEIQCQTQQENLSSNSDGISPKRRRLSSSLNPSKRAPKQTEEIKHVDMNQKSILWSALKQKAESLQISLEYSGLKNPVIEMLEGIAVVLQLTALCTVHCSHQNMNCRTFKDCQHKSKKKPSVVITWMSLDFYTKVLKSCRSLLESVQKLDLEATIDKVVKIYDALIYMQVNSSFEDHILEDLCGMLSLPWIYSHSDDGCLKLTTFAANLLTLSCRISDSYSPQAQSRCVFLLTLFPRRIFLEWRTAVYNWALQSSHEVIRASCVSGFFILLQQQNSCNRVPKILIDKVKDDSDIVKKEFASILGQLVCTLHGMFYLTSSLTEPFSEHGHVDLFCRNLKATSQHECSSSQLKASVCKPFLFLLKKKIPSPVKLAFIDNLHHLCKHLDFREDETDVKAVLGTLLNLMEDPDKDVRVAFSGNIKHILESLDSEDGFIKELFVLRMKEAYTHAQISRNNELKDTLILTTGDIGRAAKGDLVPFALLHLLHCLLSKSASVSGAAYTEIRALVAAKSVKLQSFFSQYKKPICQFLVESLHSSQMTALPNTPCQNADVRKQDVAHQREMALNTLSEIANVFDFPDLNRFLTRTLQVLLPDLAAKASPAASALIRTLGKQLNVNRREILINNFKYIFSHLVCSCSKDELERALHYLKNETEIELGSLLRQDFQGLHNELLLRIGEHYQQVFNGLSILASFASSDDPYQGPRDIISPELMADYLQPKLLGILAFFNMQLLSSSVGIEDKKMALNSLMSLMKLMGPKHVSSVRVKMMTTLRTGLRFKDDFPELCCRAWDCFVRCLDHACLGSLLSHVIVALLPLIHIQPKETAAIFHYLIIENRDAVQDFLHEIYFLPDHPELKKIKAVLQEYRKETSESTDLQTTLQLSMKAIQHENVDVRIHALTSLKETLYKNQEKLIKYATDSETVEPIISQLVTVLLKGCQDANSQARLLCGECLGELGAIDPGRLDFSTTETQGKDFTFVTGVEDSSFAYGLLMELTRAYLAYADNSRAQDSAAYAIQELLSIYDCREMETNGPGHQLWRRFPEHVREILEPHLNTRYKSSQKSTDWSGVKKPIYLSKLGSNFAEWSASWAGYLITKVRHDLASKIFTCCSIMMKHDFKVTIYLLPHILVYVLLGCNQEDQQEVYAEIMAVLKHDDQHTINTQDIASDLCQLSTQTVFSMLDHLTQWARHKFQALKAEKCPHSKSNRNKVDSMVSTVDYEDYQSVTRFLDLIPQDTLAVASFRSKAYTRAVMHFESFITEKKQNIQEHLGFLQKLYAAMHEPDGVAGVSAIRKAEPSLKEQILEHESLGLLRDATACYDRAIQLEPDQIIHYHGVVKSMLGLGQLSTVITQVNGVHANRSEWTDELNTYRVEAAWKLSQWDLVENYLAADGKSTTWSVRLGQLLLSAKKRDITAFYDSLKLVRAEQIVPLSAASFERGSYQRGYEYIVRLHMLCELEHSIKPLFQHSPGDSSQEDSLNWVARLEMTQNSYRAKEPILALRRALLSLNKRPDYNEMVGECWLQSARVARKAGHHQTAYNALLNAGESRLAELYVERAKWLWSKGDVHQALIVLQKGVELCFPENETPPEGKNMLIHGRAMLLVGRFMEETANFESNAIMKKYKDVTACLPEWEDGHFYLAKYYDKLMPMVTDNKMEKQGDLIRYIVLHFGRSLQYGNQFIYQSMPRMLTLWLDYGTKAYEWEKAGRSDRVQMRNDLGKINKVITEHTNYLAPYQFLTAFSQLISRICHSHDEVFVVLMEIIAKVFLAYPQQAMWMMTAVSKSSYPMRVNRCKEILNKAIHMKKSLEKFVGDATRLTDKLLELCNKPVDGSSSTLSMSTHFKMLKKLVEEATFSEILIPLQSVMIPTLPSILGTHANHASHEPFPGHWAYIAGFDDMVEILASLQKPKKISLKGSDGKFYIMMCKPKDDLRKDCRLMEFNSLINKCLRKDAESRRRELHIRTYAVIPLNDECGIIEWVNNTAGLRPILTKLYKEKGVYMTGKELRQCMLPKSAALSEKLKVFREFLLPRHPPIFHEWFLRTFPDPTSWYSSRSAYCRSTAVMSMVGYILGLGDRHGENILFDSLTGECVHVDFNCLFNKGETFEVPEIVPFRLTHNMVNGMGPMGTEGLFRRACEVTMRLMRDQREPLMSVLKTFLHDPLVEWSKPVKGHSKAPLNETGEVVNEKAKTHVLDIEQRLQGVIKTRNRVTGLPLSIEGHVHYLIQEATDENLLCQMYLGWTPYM
intracellular ATR, sequence (Q8WXE1 whole entry partner): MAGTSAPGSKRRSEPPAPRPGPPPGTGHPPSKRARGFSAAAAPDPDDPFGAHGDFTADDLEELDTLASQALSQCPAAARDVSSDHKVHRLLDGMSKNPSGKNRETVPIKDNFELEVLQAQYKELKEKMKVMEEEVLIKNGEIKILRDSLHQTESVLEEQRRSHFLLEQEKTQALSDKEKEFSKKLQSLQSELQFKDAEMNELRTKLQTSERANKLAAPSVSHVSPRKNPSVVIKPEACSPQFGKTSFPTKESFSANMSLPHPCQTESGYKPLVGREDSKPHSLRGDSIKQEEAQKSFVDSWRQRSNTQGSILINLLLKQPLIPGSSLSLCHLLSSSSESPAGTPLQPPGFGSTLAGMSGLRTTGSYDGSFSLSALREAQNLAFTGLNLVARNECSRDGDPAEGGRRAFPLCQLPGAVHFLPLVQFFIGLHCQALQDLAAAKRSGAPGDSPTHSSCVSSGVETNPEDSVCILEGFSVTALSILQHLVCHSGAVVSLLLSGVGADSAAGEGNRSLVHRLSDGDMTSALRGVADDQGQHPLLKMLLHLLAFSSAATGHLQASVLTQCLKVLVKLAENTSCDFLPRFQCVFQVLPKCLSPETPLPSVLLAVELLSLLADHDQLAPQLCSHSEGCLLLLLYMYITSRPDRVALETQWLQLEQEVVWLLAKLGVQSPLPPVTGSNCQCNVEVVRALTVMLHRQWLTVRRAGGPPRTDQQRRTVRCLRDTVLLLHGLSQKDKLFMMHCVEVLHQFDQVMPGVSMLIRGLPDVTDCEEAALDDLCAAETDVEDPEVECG
Procedure: Compounds can be screened for their ability to inhibit intracellular ATR using an immunofluorescence microscopy assay to detect phosphorylation of the ATR substrate histone H2AX in hydroxyurea treated cells. HT29 cells are plated at 14,000 cells per well in 96-well black imaging plates (BD 353219) in McCoy's 5 A media (Sigma M8403) supplemented with 10% foetal bovine serum (JRH Biosciences 12003), Penicillin/Streptomycin solution diluted 1:100 (Sigma P7539), and 2 mM L-glutamine (Sigma G7513), and allowed to adhere overnight at 37° C. in 5% CO2. Compounds are then added to the cell media from a final concentration of 25 μM in 3-fold serial dilutions and the cells are incubated at 37° C. in 5% CO2. After 15 min, hydroxyurea (Sigma H8627) is added to a final concentration of 2 mM.
After 45 min of treatment with hydroxyurea, the cells are washed in PBS, fixed for 10 min in 4% formaldehyde diluted in PBS (Polysciences Inc 18814), washed in 0.2% Tween-20 in PBS (wash buffer), and permeabilised for 10 min in 0.5% Triton X-100 in PBS, all at room temperature. The cells are then washed once in wash buffer and blocked for 30 min at room temperature in 10% goat serum (Sigma G9023) diluted in wash buffer (block buffer). […]
Cells are imaged for Alexa Fluor 488 and Hoechst intensity using the BD Pathway 855 Bioimager and Attovision software (BD Biosciences, Version 1.6/855) to quantify phosphorylated H2AX Ser139 and DNA staining, respectively. The percentage of phosphorylated H2AX-positive nuclei in a montage of 9 images at 20× magnification is then calculated for each well using BD Image Data Explorer software (BD Biosciences Version 2.2.15). […] The percentage of H2AX positive nuclei is finally plotted against concentration for each compound and IC50s for intracellular ATR inhibition are determined using Prism software(GraphPad Prism version 3.0cx for Macintosh, GraphPad Software, San Diego Calif., USA).

[3] = target: full-length ATR (Homo sapiens (Human), UniProt Q13535); assay: ATR Inhibition Assay (radioactive-phosphate incorporation); type: biochemical
full-length ATR, sequence (Q13535 whole entry): as the sequence (Q13535 whole entry) above
Outline: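 Ki(app) was derived by non-linear regression of background-corrected initial rates of 33P incorporation into an 800 μM target peptide, read by phosphocellulose filter scintillation counting. Reaction conditions: 5 nM full-length ATR, 10 μM [γ-33P]ATP, pH 7.5 Tris buffer with MgCl2 and DTT, 25 °C, 10-min preincubation, 24 h run.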

[4] = tested on: HCT116 colorectal cancer cells; assay: Cisplatin Sensitization Assay (96 h MTS cell viability); type: cell-based; conditions: concentration of compound required to reduce the IC50 of Cisplatin alone by at least 3-fold
Procedure: as §1

[5] = 5 nM full-length ATR, 10 μM ATP, Ki(app), read-out: ATR Inhibition Assay Ki

Molecule	Ki ([3]; read-out: ATR Ki)	other results
CS(=O)(=O)c1ccc(-c2cnc(N)c(C(=O)Nc3ccccc3)n2)cc1 [Compound I-82, 3-amino-6-(4-(methylsulfonyl)phenyl)-N-phenylpyrazine-2-carboxamide]	0.01 to 0.1 µM	IC50 [1]: 1 to 20 µM; IC50 [2]: 1 to 20 µM; Ki [3, 5]: ≤ 0.1 µM; Synergy with Cisplatin (uM) [4]: ++ (Compounds with an IC50 or Ki value >100 nM but ≤1 uM are marked with “++.”)
Cc1ccc2nc(-c3nc(-c4ccc(C(=O)N5CCNCC5)cc4)cnc3N)[nH]c2c1 [III-3, (4-(5-amino-6-(6-methyl-1H-benzo[d]imidazol-2-yl)pyrazin-2-yl)phenyl)(piperazin-1-yl)methanone]	0.01 to 0.1 µM	–
Cc1ccc2nc(-c3nc(-c4ccc(C(=O)N5CCN(C)CC5)cc4)cnc3N)[nH]c2c1 [III-4, (4-(5-amino-6-(6-methyl-1H-benzo[d]imidazol-2-yl)pyrazin-2-yl)phenyl)(4-methylpiperazin-1-yl)methanone]	0.01 to 0.1 µM	–
Cc1ccc2nc(-c3nc(-c4ccc(C(=O)N5CCCN(C)CC5)cc4)cnc3N)[nH]c2c1 [III-5, (4-(5-amino-6-(6-methyl-1H-benzo[d]imidazol-2-yl)pyrazin-2-yl)phenyl)(4-methyl-1,4-diazepan-1-yl)methanone]	0.01 to 0.1 µM	–
Nc1ncc(-c2ccc(C(=O)NCCN3CCCC3)cc2)nc1-c1nc2ccccc2[nH]1 [III-6, 4-(5-amino-6-(1H-benzo[d]imidazol-2-yl)pyrazin-2-yl)-N-(2-(pyrrolidin-1-yl)ethyl)benzamide]	0.01 to 0.1 µM	–
Nc1ncc(-c2cccnc2)nc1-c1nnc(-c2cccs2)[nH]1 [IIIA-4, 5-(pyridin-3-yl)-3-(5-(thiophen-2-yl)-4H-1,2,4-triazol-3-yl)pyrazin-2-amine]	0.01 to 0.1 µM	–
CN(C)C(=O)c1ccc(-c2cnc(N)c(-c3nnc(Nc4ccccc4C#N)s3)n2)cc1 [IVA-3, 4-[5-amino-6-[5-(2-cyanoanilino)-1,3,4-thiadiazol-2-yl]pyrazin-2-yl]-N,N-dimethyl-benzamide]	0.1 to 5 µM	–
COc1ncccc1NC(=O)c1nc(-c2ccc(S(C)(=O)=O)cc2)cnc1N [VII-1]	0.01 to 0.1 µM	–
Cc1cc(NC(=O)c2nc(-c3ccc(S(C)(=O)=O)cc3)cnc2N)ccn1 [VII-2]	0.01 to 0.1 µM	–
Cc1cc(NC(=O)c2nc(-c3ccc(S(C)(=O)=O)cc3)cnc2N)n(C)n1 [VII-3]	0.1 to 5 µM	–
CCc1ncccc1NC(=O)c1nc(-c2ccc(S(C)(=O)=O)cc2)cnc1N [VII-4]	0.01 to 0.1 µM	–
Cc1ncccc1NC(=O)c1nc(-c2ccc(S(C)(=O)=O)cc2)cnc1N [VII-5]	0.01 to 0.1 µM	–
CS(=O)(=O)c1ccc(-c2cnc(N)c(C(=O)Nc3ccccn3)n2)cc1 [VII-6]	0.01 to 0.1 µM	–
CS(=O)(=O)c1ccc(-c2cnc(N)c(C(=O)Nc3ncns3)n2)cc1 [VII-7]	0.01 to 0.1 µM	–
Cc1cnc(NC(=O)c2nc(-c3ccc(S(C)(=O)=O)cc3)cnc2N)s1 [VII-8]	0.01 to 0.1 µM	–
CNCc1ccc(NC(=O)c2nc(-c3ccc(S(C)(=O)=O)cc3)cnc2N)cc1 [VII-10]	0.1 to 5 µM	–
CNCc1ccc(NC(=O)c2nc(-c3ccc(S(=O)(=O)C(C)C)cc3)cnc2N)cc1 [VII-11]	0.01 to 0.1 µM	–
CNCc1cccc(NC(=O)c2nc(-c3ccc(S(C)(=O)=O)cc3)cnc2N)c1 [VII-13]	0.01 to 0.1 µM	–
(R)-3-amino-N-phenyl-6-(4-(2-(pyrrolidin-1-ylmethyl)pyrrolidine-1-carbonyl)phenyl)pyrazine-2-carboxamide [Compound I-42]	0.1 to 5 µM	–

More lines, main results first:

Ki ([3]; read-out: ATR Ki)	Molecule	other results
≤ 0.01 µM	CNCc1ccc(-c2nnc(-c3nc(-c4ccc(S(=O)(=O)C(C)C)cc4)cnc3N)o2)cc1 [IA-159, 5-(4-isopropylsulfonylphenyl)-3-[5-[4-(methylaminomethyl)phenyl]-1,3,4-oxadiazol-2-yl]pyrazin-2-amine]	IC50 [1]: 0.1 to 1 µM; IC50 [2]: ≤ 0.1 µM; Ki [3, 5]: ≤ 0.1 µM; Synergy with Cisplatin (uM) [4]: +++ (Compounds with an IC50 or Ki value of ≤100 nM are marked with “+++.”)
≤ 0.01 µM	CC(O)CNCc1ccc(-c2cc(-c3nc(-c4ccc(S(=O)(=O)C(C)C)cc4)cnc3N)on2)cc1 (stereo not drawn) [IIA-11, 1-(4-(5-(3-amino-6-(4-(isopropylsulfonyl)phenyl)pyrazin-2-yl)isoxazol-3-yl)benzylamino)propan-2-ol]	IC50 [1]: 0.1 to 1 µM; IC50 [2]: ≤ 0.1 µM; Ki [3, 5]: ≤ 0.1 µM; Synergy with Cisplatin (uM) [4]: +++ (Compounds with an IC50 or Ki value of ≤100 nM are marked with “+++.”)
≤ 0.01 µM	CNCc1ccc(-c2cc(-c3nc(-c4ccc(S(=O)(=O)C(C)C)cc4)cnc3N)on2)cc1Cl [IIA-13, 3-[3-[3-chloro-4-(methylaminomethyl)phenyl]isoxazol-5-yl]-5-(4-isopropylsulfonylphenyl)pyrazin-2-amine]	–
≤ 0.01 µM	CNCc1ccc(-c2cc(-c3nc(-c4ccc(S(=O)(=O)C(C)C)cc4)cnc3N)on2)c(F)c1 [IIA-14, 3-[3-[2-fluoro-4-(methylaminomethyl)phenyl]isoxazol-5-yl]-5-(4-isopropylsulfonylphenyl)pyrazin-2-amine]	–
≤ 0.01 µM	CNCc1ccc(-c2cc(-c3nc(-c4ccc(S(=O)(=O)C5CCOC5)cc4)cnc3N)on2)c(F)c1 (stereo not drawn) [IIA-16, 3-[3-[2-fluoro-4-(methylaminomethyl)phenyl]isoxazol-5-yl]-5-(4-tetrahydrofuran-3-ylsulfonylphenyl)pyrazin-2-amine]	–
0.01 to 0.1 µM	Cc1ccc2nc(-c3nc(-c4ccc(C(=O)N5CCCNCC5)cc4)cnc3N)[nH]c2c1 [III-1, (4-(5-amino-6-(6-methyl-1H-benzo[d]imidazol-2-yl)pyrazin-2-yl)phenyl) (1,4-diazepan-1-yl)methanone]	–
0.01 to 0.1 µM	Cc1ccc2nc(-c3nc(-c4ccc(C(=O)N5CCC(N(C)C)CC5)cc4)cnc3N)[nH]c2c1 [III-2, (4-(5-amino-6-(6-methyl-1H-benzo[d]imidazol-2-yl)pyrazin-2-yl)phenyl)(4-(dimethylamino)piperidin-1-yl)methanone]	–
≤ 0.01 µM	CN(C)C(=O)c1ccc(-c2cnc(N)c(-c3nnc(-c4ccccc4)s3)n2)c(C#N)c1 [IVA-1, 4-[5-amino-6-(5-phenyl-1,3,4-thiadiazol-2-yl)pyrazin-2-yl]-3-cyano-N,N-dimethyl-benzamide]	–
≤ 0.01 µM	N#Cc1cc(C(=O)N2CCCNCC2)ccc1-c1cnc(N)c(-c2nnc(-c3ccccc3)s2)n1 [IVA-2, 2-[5-amino-6-(5-phenyl-1,3,4-thiadiazol-2-yl)pyrazin-2-yl]-5-(1,4-diazepane-1-carbonyl)benzonitrile]	–
≤ 0.01 µM	COc1ccncc1NC(=O)c1nc(-c2ccc(S(C)(=O)=O)cc2)cnc1N [VII-9]	–
≤ 0.01 µM	CNCc1cccc(NC(=O)c2nc(-c3ccc(S(=O)(=O)C(C)C)cc3)cnc2N)c1 [VII-12]	–
